For this data set, the system named is bacterial strain (mutant bacterial colonies). In words: Ames test of epoxy pre-polymers (mutagenic potential). The format is cell-based. The following applies: number of mutant bacterial colonies from a given strain exposed to the compound, non-toxic at induction ratio of 2 or less. On the procedure: In order to determine the mutagenic potential of the epoxy pre-polymers, an Ames test was carried out on different Mn and EEW epoxy resins. The results are expressed in induction levels, that is, the number of mutant bacterial colonies obtained from a given strain exposed to the compound. The resin is considered to be non-toxic in the case of an induction ratio of 2 or less.

Each structure is given as a SMILES string.

In the case of `C1OC1COC1COC2C(OCC3CO3)COC12` (stereo not shown) [IDGE 1* fraction, isosorbide diglycidylether], the Induction ratio was 20.2.
